How the values were obtained:
Fungi suspension = test: Boko test in water-diluted cutting fluids, fungi suspension; assay type: cell-based
Description: (§1) In separate batches, in each case 100 ml of the water-diluted cutting fluid to be preserved were admixed with various concentrations of the preservatives to be examined. The growth control used was in each case an unpreserved sample. Two days after the incorporation of the preservatives, the test batches were infected for the first time using 1 ml of an inoculating solution. The inoculating solution used was a suspension of the germs listed below (cultivated on nutrient media and then adapted to water-diluted cutting fluids). […] [table] The test batches were subsequently inoculated two times a week and plated onto agar plates two times per week, the first smear being carried out immediately prior to the new inoculation. The microbial growth on the smears was assessed after incubation at 25° C. for three days. […] The preservative effect of the individual product concentrations was assessed in a semiquantitative method by the colonization of the individual smears using the classification from − to +to +++. Growth was differentiated according to bacteria, yeasts and moulds. The test was usually carried out for twelve inoculation cycles or interrupted after repeated +++growth. The cutting fluids Shell Dromus BX or Almasol EP from Castrol or Rondocor Kompakt from Consulta were examined as 4% strength by weight emulsions in tap water from the city of Norderstedt. Inoculation was carried out using a suspension of bacteria or fungi or a mixed suspension of bacteria and fungi.

[1] = test system: Mixed suspension of bacteria and fungi; test: Boko test in water-diluted cutting fluids, mixed suspension; assay type: cell-based
Description: as §1

[2] = Cutting fluid Almasol EP, use concentration 0.05% by weight
[3] = Cutting fluid Almasol EP, use concentration 0.10% by weight
[4] = Cutting fluid Almasol EP, use concentration 0.15% by weight
[5] = Cutting fluid Rondocor Kompakt, use concentration 0.05% by weight
[6] = Cutting fluid Rondocor Kompakt, use concentration 0.10% by weight
[7] = Cutting fluid Rondocor Kompakt, use concentration 0.15% by weight
[8] = Cutting fluid Shell Dromus BX, use concentration 0.05% by weight
[9] = Cutting fluid Shell Dromus BX, use concentration 0.10% by weight
[10] = Cutting fluid Shell Dromus BX, use concentration 0.15% by weight

CC1CN(CN2COC(C)C2)CO1 (stereo not drawn) [Mar 71, 3,3′-methylenebis-(5-methyloxazolidine)]
Number of inoculation cycles passed on inoculation with Fungi suspension (Fungi suspension; [2]): >12 | Number of inoculation cycles passed on inoculation with Fungi suspension (Fungi suspension; [3]): >12 | Number of inoculation cycles passed on inoculation with Fungi suspension (Fungi suspension; [4]): >12 | Number of inoculation cycles passed on inoculation with Fungi suspension (Fungi suspension; [5]): >12 | Number of inoculation cycles passed on inoculation with Fungi suspension (Fungi suspension; [6]): >12 | Number of inoculation cycles passed on inoculation with Fungi suspension (Fungi suspension; [7]): >12 | Number of inoculation cycles passed on inoculation with Fungi suspension (Fungi suspension; [8]): >12 | Number of inoculation cycles passed on inoculation with Fungi suspension (Fungi suspension; [9]): >12 | Number of inoculation cycles passed on inoculation with Fungi suspension (Fungi suspension; [10]): >12 | Number of inoculation cycles passed on inoculation with Mixed suspension [1, 2]: 11 | Number of inoculation cycles passed on inoculation with Mixed suspension [1, 3]: >12 | Number of inoculation cycles passed on inoculation with Mixed suspension [1, 4]: 11 | Number of inoculation cycles passed on inoculation with Mixed suspension [1, 5]: >12 | Number of inoculation cycles passed on inoculation with Mixed suspension [1, 6]: >12 | Number of inoculation cycles passed on inoculation with Mixed suspension [1, 7]: >12 | Number of inoculation cycles passed on inoculation with Mixed suspension [1, 8]: 4 | Number of inoculation cycles passed on inoculation with Mixed suspension [1, 9]: 11 | Number of inoculation cycles passed on inoculation with Mixed suspension [1, 10]: >12

Reference: patent US6348483B1, “Use of derivatives of methylene-bis-oxazolidine and compositions obtained thereby” (Air Liquide Sante (International), priority 1998, dated 2002)
